This assay relates to BALB/cJ mice, ADJ-PC-6 ip tumor, median survival T/C. Kind of assay: NCI In Vivo Anticancer Drug Screen. Data for tumor model ADJ-PC-6 (intraperitoneal) in BALB/cJ mice. The following applies: endpoint: median survival time, higher = longer survival. The protocol:
The antitumor activity of compounds was measured in mice bearing transplantable tumors. Survival or tumor size were measured and the results are expressed as the measurement made in the treated group (T) divided by the measurement made in the vehicle treated control group (C). The tumor model used in this assay is ADJ-PC-6 (intraperitoneal) in BALB/cJ mice

Several values for one entry are separate records, joined by “and”; a condition that tells them apart may be missing. Equal values may be shown once. Toxic doses and inconclusive results are not listed. Starred links: 1 amine or outer side, 2 acyl side, 3 side chain; linkers in the order of their positions; H or OH if unused. Positions of bridges follow the written chain, without caps; N, C: chain ends. Non-standard residues stand in square brackets, D forms with d. Residues, ends and D or L forms follow the SMILES beside them. Chains are numbered I, II in the order given. Actinocin(9to1) = Cc1c2oc3c(C)ccc(C(=O)[*:1])c3nc-2c(C(=O)[*:2])c(N)c1=O; aThr = C[C@H](O)[C@H](N)C(=O)O; NMeV = CN[C@H](C(=O)O)C(C)C; Sar = CNCC(=O)O

Turning to `O=C(O)CCCc1ccc(N(CCCl)CCCl)cc1`, the T/C is 106 % of control (dose: 1.25 mg/kg/injection, schedule: Q04DX003 (ip), vehicle: saline with Tween-80); 102 % of control (dose: 2.0 mg/kg/injection, schedule: Q04DX003 (ip), vehicle: saline with Tween-80); 105 % of control (dose: 2.5 mg/kg/injection, schedule: Q04DX003 (ip), vehicle: saline with Tween-80); 102 % of control (dose: 4.0 mg/kg/injection, schedule: Q04DX003 (ip), vehicle: saline with Tween-80); 105 % of control (dose: 5.0 mg/kg/injection, schedule: Q04DX003 (ip), vehicle: saline with Tween-80); 122 % of control (dose: 8.0 mg/kg/injection, schedule: Q04DX003 (ip), vehicle: saline with Tween-80). Further, the T/C is 173 % of control (dose: 16.0 mg/kg/injection, schedule: Q04DX003 (ip), vehicle: saline with Tween-80); 260 % of control (dose: 20.0 mg/kg/injection, schedule: Q04DX003 (ip), vehicle: saline with Tween-80); 189 % of control (dose: 32.0 mg/kg/injection, schedule: Q04DX003 (ip), vehicle: saline with Tween-80).
As for `CC1CCC(NC(=O)N(CCCl)N=O)CC1` (centres undefined), the T/C is 120 % of control (dose: 1.25 mg/kg/injection, schedule: Q04DX003 (ip), vehicle: other); 182 % of control and 183 % of control (dose: 2.5 mg/kg/injection, schedule: Q04DX003 (ip), vehicle: other); 158 % of control and 355 % of control (dose: 5.0 mg/kg/injection, schedule: Q04DX003 (ip), vehicle: other); 337 % of control and 355 % of control (dose: 10.0 mg/kg/injection, schedule: Q04DX003 (ip), vehicle: other); 272 % of control and 297 % of control (dose: 20.0 mg/kg/injection, schedule: Q04DX003 (ip), vehicle: other).
Turning to `CC1(C)N=C(N)N=C(N)N1c1ccc(CCCCc2ccc(S(=O)(=O)F)cc2Cl)c(Cl)c1`, the T/C is, setting by setting: (dose: 2.5 mg/kg/injection, schedule: Q01DX009 (ip), vehicle: saline) 88 % of control; (dose: 5.0 mg/kg/injection, schedule: Q01DX009 (ip), vehicle: saline) 101 % of control; (dose: 10.0 mg/kg/injection, schedule: Q01DX009 (ip), vehicle: saline) 106 % of control; (dose: 12.5 mg/kg/injection, schedule: Q04DX003 (ip), vehicle: Klucel (hydroxypropylcellulose) (HPC)) 96 % of control; (dose: 20.0 mg/kg/injection, schedule: Q01DX009 (ip), vehicle: saline) 119 % of control; (dose: 25.0 mg/kg/injection, schedule: Q04DX003 (ip), vehicle: Klucel (hydroxypropylcellulose) (HPC)) 91 % of control. The T/C by setting is: (dose: 50.0 mg/kg/injection, schedule: Q04DX003 (ip), vehicle: Klucel (hydroxypropylcellulose) (HPC)) 92 % of control; (dose: 100.0 mg/kg/injection, schedule: Q04DX003 (ip), vehicle: Klucel (hydroxypropylcellulose) (HPC)) 91 % of control; (dose: 200.0 mg/kg/injection, schedule: Q04DX003 (ip), vehicle: Klucel (hydroxypropylcellulose) (HPC)) 91 % of control.
Turning to `COc1cccc2c1C(=O)c1c(O)c3c(c(O)c1C2=O)C[C@@](O)(C(=O)CO)C[C@@H]3OC1CC(N)C(O)C(C)O1` (some centres undefined), the T/C by setting is: (dose: 0.5 mg/kg/injection, schedule: Q04DX003 (iv), vehicle: saline) 103 % of control; (dose: 1.0 mg/kg/injection, schedule: Q04DX003 (iv), vehicle: saline) 92 % of control; (dose: 2.0 mg/kg/injection, schedule: Q04DX003 (iv), vehicle: saline) 97 % of control; (dose: 4.0 mg/kg/injection, schedule: Q04DX003 (iv), vehicle: saline) 95 % of control; (dose: 8.0 mg/kg/injection, schedule: Q04DX003 (iv), vehicle: saline) 168 % of control and 225 % of control.
Take `Cc1c2oc3c(C)ccc(C(=O)N[C@@H]4C(=O)N[C@H](C(C)C)C(=O)N5CCC[C@H]5C(=O)N(C)CC(=O)N(C)[C@@H](C(C)C)C(=O)O[C@H]4C)c3nc-2c(C(=O)N[C@@H]2C(=O)N[C@H](C(C)C)C(=O)N3CCC[C@H]3C(=O)N(C)CC(=O)N(C)[C@@H](C(C)C)C(=O)O[C@H]2C)c(N)c1=O` (I: [aThr][dV]P[Sar][NMeV] / II: [aThr][dV]P[Sar][NMeV]; ester I:1-I:C, II:1-II:C; linker I:N-II:N via Actinocin(9to1)): the T/C was 115 % of control (dose: 0.04 mg/kg/injection, schedule: Q04DX003 (ip), vehicle: saline + alcohol); 115 % of control (dose: 0.08 mg/kg/injection, schedule: Q04DX003 (ip), vehicle: saline + alcohol); 156 % of control (dose: 0.3 mg/kg/injection, schedule: Q04DX003 (ip), vehicle: saline + alcohol); 189 % of control and 197 % of control (dose: 0.6 mg/kg/injection, schedule: Q04DX003 (ip), vehicle: saline + alcohol); 94 % of control (dose: 37.5 micrograms/kg/injection, schedule: Q04DX003 (ip), vehicle: saline + alcohol); 103 % of control (dose: 75.0 micrograms/kg/injection, schedule: Q04DX003 (ip), vehicle: saline + alcohol). The T/C (dose: 150.0 micrograms/kg/injection, schedule: Q04DX003 (ip), vehicle: saline + alcohol) was 97 % of control and the T/C (dose: 300.0 micrograms/kg/injection, schedule: Q04DX003 (ip), vehicle: saline + alcohol) was 90 % of control.
As to `CO[C@H]1C[C@](C)(O)Cc2cc3c(c(O)c21)C(=O)c1c(O)cc2c(c1C3=O)O[C@@H]1O[C@@]2(C)[C@H](O)[C@@H](N(C)C)[C@@H]1O`, the T/C runs as follows: (dose: 7.5 mg/kg/injection, schedule: Q04DX003 (ip), vehicle: saline) 188 % of control; (dose: 12.5 mg/kg/injection, schedule: Q04DX003 (ip), vehicle: saline) 189 % of control; (dose: 15.0 mg/kg/injection, schedule: Q04DX003 (ip), vehicle: saline) 319 % of control; (dose: 25.0 mg/kg/injection, schedule: Q04DX003 (ip), vehicle: saline) 252 % of control; (dose: 30.0 mg/kg/injection, schedule: Q04DX003 (ip), vehicle: saline) 267 % of control; (dose: 60.0 mg/kg/injection, schedule: Q04DX003 (ip), vehicle: saline) 471 % of control.
As for `Nc1ncn(C2OC(CO)C(O)C2O)c(=O)n1` (centres undefined), the T/C is, setting by setting: (dose: 2.0 mg/kg/injection, schedule: Q04DX003 (ip), vehicle: saline) 120 % of control; (dose: 8.0 mg/kg/injection, schedule: Q04DX003 (ip), vehicle: saline) 157 % of control; (dose: 10.0 mg/kg/injection, schedule: Q04DX003 (ip), vehicle: saline) 185 % of control; (dose: 20.0 mg/kg/injection, schedule: Q04DX003 (ip), vehicle: saline) 219 % of control; (dose: 32.0 mg/kg/injection, schedule: Q04DX003 (ip), vehicle: saline) 235 % of control.
Turning to `CS(=O)(=O)c1ncc(Br)cn1`, the T/C (dose: 25.0 mg/kg/injection, schedule: Q01DX009 (ip), vehicle: saline with Tween-80) is 105 % of control; the T/C (dose: 50.0 mg/kg/injection, schedule: Q01DX009 (ip), vehicle: saline with Tween-80) was 105 % of control; the T/C (dose: 100.0 mg/kg/injection, schedule: Q01DX009 (ip), vehicle: saline with Tween-80) is 118 % of control; the T/C (dose: 200.0 mg/kg/injection, schedule: Q01DX009 (ip), vehicle: saline with Tween-80) is 100 % of control.
For the compound `Nc1nc(F)nc2c1ncn2C1OC(COP(=O)(O)O)C(O)C1O` (centres undefined), the T/C reads like this: (dose: 25.0 mg/kg/injection, schedule: Q01DX009 (ip), vehicle: saline) 90 % of control; (dose: 50.0 mg/kg/injection, schedule: Q01DX009 (ip), vehicle: saline) 91 % of control; (dose: 100.0 mg/kg/injection, schedule: Q01DX009 (ip), vehicle: saline) 104 % of control.

These data come from PubChem BioAssay AID184 (DTP/NCI, 2004).
